Patent US11883416B2, “Methods and compositions for the treatment of IL13Ra2—overexpressing cancer” (CONSEJO SUPERIOR DE INVESTIGACIONES CIENTÍFICAS (CSIC), priority 2020, dated 2024)
“Also recorded” adds a separate entry of the source.

Key:
KM12SM cells [1] = test: colorectal cancer liver metastasis model, intrasplenic inoculation; format: in vivo, Swiss nude mice
Method: (§1) FIGS. 7A-7E show PTP1B inhibition increases survival in CRC and glioblastoma mouse models. […] Murine β-actin amplification was used as a loading control.
(§2) For GBM xenografts, NSG mice were subcutaneously inoculated with U251 cells. Then, mice were treated intraperitoneally with 7 doses of Claramine (every three days) starting day 15 after implantation (a total of 2 mg/kg of body weight). The size of subcutaneous tumors was measured every 2 days. After euthanasia, tumors were isolated and the extracts subjected to Western blot analysis to determine IL13Rα2 and PTP1B activation. Liver homing and metastasis experiments in Swiss nude mice have been described. For CRC metastasis, mice were treated with the same dose of Claramine as above. Animals were weighed to study the effects on food intake and tolerance to the treatment.
Finally, the in vivo effects of PTP1B silencing or inhibition in colorectal cancer and glioblastoma mouse models were investigated. Given the high homology between murine and human IL-13, it was hypothesized that it was unnecessary to treat the mice with exogenous human IL-13 (11). Fora further confirmation, human and murine IL-13 were compared in an invasion experiment. Both IL-13 promoted a similar pro-invasive capacity on human cancer cells (data not shown). Then, the effect of PTP1B silencing on the capacity for liver homing of KM12SM cells inoculated in the spleen of nude mice was examined. As a surrogate marker for homing, human GAPDH was detected in the livers of mice inoculated with control cells but not in those inoculated with PTP1B-silenced cells (FIG. 7A). Then, the effects of Claramine on mice survival in colorectal cancer metastasis were investigated. Forty-eight h after spleen inoculation with CRC cells, mice were treated intraperitoneally (i.p.) with Claramine for two weeks on alternate days, with a total dose of 49 μg/mouse.

U251 cells [2] = test: phosphorylation of insulin receptor substrate 1 (IRS-1); format: cell-based, human; conditions: U251 cells treated with IL-13 and Claramine
Description: (§3) As PTP1B silencing or Claramine treatment might modulate glucose and energy homeostasis including insulin signaling, the effect of IL-13 on the glucose uptake and insulin signaling was also investigated. IL-13 increased the glucose uptake in GMB cells but not in CRC cells (data not shown). […] The phosphorylation of insulin receptor substrate 1 (IRS-1) in CRC and GBM cells treated with IL-13 and Claramine was then studied. A strong phosphorylation of IRS-1 in U251 cells treated with IL-13 was found. In contrast, phosphorylation of IRS-1 in KM12SM cells was much weaker, without differences after IL-13 addition. […] Together, these studies support that Claramine effect on tumor cells seems to be independent of the glucose homeostasis.

KM12SM cells [3] = test: as above; format: cell-based, human; conditions: KM12SM cells treated with IL-13 and Claramine
Description: as §3

U87MG cells [4] = test: IL-13-triggered invasion assay; format: cell-based, human; conditions: IL-13, Claramine 2 μM, trifluoroacetate salt
Method: (§4) FIG. 5. […] B) KM12SM cells were subjected to cell adhesion. C) KM12SM and U87MG cells were subjected to MTT assays. The three cell lines were subjected to D) migration and E) invasion assays. All the experiments were done in the presence or absence of IL-13, Claramine and/or anti-IL13Rα2 blocking antibodies.
(§5) Adhesion, wound healing and invasion assays have been previously reported.
(§6) Next, the effect of the PTP1B inhibitor Claramine on the pro-invasive effects of IL-13 was investigated. First, the cellular toxicity of Claramine was studied at different doses. Claramine at 5 μM caused around 50% decrease in cell survival, but had no effect at 2 μM, which was used in the remaining experiments (data not shown). […] The effects of Claramine on cell adhesion, migration, invasion, and, to a minor extent, proliferation mimicked the effects of PTP1B silencing in the three types of cancer cells (FIG. 5 B-E).

A2780 cells [5] = test: IL-13-triggered invasion assay; format: cell-based, human; conditions: A2780, IL-13, Claramine 2 μM; trifluoroacetate salt
Method: as §4, §5, §6

KM12SM cells [6] = test: IL-13-triggered invasion assay; format: cell-based, human; conditions: IL-13, Claramine 2 μM, trifluoroacetate salt
Method: as §4, §5, §6

U87MG cells [7] = test: Western blot of pSrc Y530 in IL-13-treated cells; format: cell-based, human; conditions: 2 μM Claramine, IL13-treated U87MG
Method: as §4
(§7) Western blot assays were done as previously described.
as §6

A2780 cells [8] = test: Western blot of pSrc Y530 in IL-13-treated cells; format: cell-based, human; conditions: 2 μM Claramine, IL13-treated A2780
Method: as §4, §7, §6

KM12SM cells [9] = test: Western blot of pSrc Y530 in IL-13-treated cells; format: cell-based, human; conditions: 2 μM Claramine, IL13-treated KM12SM
Method: as §4, §7, §6

KM12SM cells [10] = test: IL-13-induced cell adhesion to Matrigel; format: cell-based, human; conditions: IL-13 10 ng/ml, Claramine 2 μM, trifluoroacetate salt
Method: as §4, §5, §6

GBM cells = test: 2-NBDG glucose uptake assay; format: cell-based, human; conditions: data not shown
Method: Flow cytometry was performed as previously described. For IL13Rα2 internalization assays, cells were starved for 3 h, detached with 2 mM EDTA, incubated 30 min with IL-13 at 37° C., primary and secondary antibodies for 30 min at 4° C. and analyzed in the cytofluorimeter as previously described. For glucose uptake determination, cells were incubated with IL-13 and/or Claramine and subjected to the assays using 2-NBDG glucose uptake assays kit (BioVision) according to manufacturer's instructions. Glucose uptake was quantified in the cytofluorimeter.
as §3

[11] = MTT assay for survival to oxidative stress (IL-13 promoted cell survival); format: cell-based; conditions: data not shown
Method: (§8) Proliferation assays have been previously described. To assess cell survival to oxidative stress, 10^4 cells were seeded per well on 96-well plates and incubated for 24 h in DMEM containing 1% serum in presence of 1 mM H2O2, followed by 1 h incubation with MTT. Cell viability was determined by A560 nm and compared with untreated cells.
as §6

[12] = format: cell-based; conditions: data not shown
Method: as §6

U251 GBM cells = test: Western blot of EGF and IL-13 signaling (pEGFR Y1068, pPTP1B Y66, pSrc Y419); format: cell-based, human
Method: FIG. 6. […] (A) U251 cells were treated with EGF, IL-13 or both, with or without Claramine. Cell extracts were analyzed by western blot to detect pEGFR Y1068, pPTP1B Y66, and pSrc Y419. B) U251 cells silenced for EGFR, IL13Rα2 or control cellswere treated with EGF or IL-13 in the presence or absence of Claramine. Cells were lysed and whole extracts were analyzed by western blot to detect pEGFR Y1068, pPTP1B Y66 and pSrc Y419.
as §7
EGFR is a substrate of PTP1B and might cooperate with IL13Rα2 in GBM invasion. To determine whether PTP1B participates in the modulation of the EGFR pathway besides the IL13Rα2, the effect of Claramine on EGF and IL-13 signaling in GBM was investigated. […] PTP1B Tyr66 was also phosphorylated by EGF and IL-13, indicating the participation of PTP1B in both pathways.

U251 cells [13] = test: GBM subcutaneous xenograft tumor growth; format: in vivo, NSG mice
Method: as §1, §2
Next, the in vivo effect of Claramine on GBM tumor growth and intracranial inoculation was investigated. First, mice were subcutaneously inoculated with U251 cells and xenografts were allowed to grow for 15 days before starting i.p. treatment with Claramine (FIG. 7C). Tumors in treated mice stop growing for the duration of the treatment when compared with non-treated mice. […] In addition, the involvement of IL13Rα2 and PTP1B in the tumor growth was studied using xenograft tissues. A significant increase of PTP1B phosphorylation (3-5 times) in vivo compared to cells in culture was found. […] An increased expression of IL13Rα2 in the xenografts was also noticed.

GBM12 PDX = test: intracranial model of GBM; format: in vivo, athymic nude mice
Description: as §1
For intracranial experiments, athymic nude male mice were purchased from Jackson Laboratories. All experiments were approved by the Northwestern University Institutional Animal Care and Use Committee (IACUC). For the intracranial implantation of cannula and tumor cells, 6-8 weeks old […] mice were first anesthetized with a ketamine HCl (25 mg/ml)/xylazine (2.5 mg/ml) cocktail. A previously established surgical procedure was utilized in this study with a small variation reflecting the cannula implantation. For that, a custom-made 26 gauge sterile guide cannula (Plastics One, Roanoke, VA) was installed into the brain through a burr hole at 2 mm depth and secured with tissue glue (3M, St Paul, MN). For the glioma PDX cells implantation, a 33-gauge sterile syringe was inserted into the guide cannula at 3 mm depth following by infusion of 2.5 μl of 10^5 GBM12 cells. The skin incision was closed with surgical glue around the implantation site. The extracranial end of the cannula was then covered with a 33-gauge protection dummy cannula. The surgical procedure was followed with a standard post-surgery care according to the approved protocol. The intracranial injection of Claramine through cannula was done in 4 fractions for a total 4-8 mg/kg starting day 7 after tumor implantation and every 3 days after that. For systemic treatment, Claramine was delivered intravenously in 4 fractions for a total 8, 15 or 30 mg/kg starting day 7 after tumor implantation and every 3 days after that. Sterile 0.9% saline solution served as a negative control in all experiments.
Finally, an intracranial model of GBM using the GBM12 PDX that expresses high amounts of IL13Rα2 was tested. Tumors were implanted intracranially for seven days before starting the treatment with four doses of Claramine for a total of 4 mg/kg or 8 mg/kg (FIG. 7E). The median survival for the treated mice increased up to 36-39 days from 27 days of the control mice.

U87MG cells [14] = test: MTT proliferation assay with IL-13; format: cell-based, human; conditions: IL-13, Claramine 2 μM
Method: as §4, §8, §6

KM12SM cells [15] = test: MTT proliferation assay with IL-13; format: cell-based, human; conditions: IL-13, Claramine 2 μM
Method: as §4, §8, §6

U87MG cells [16] = test: IL-13-triggered migration (wound healing) assay; format: cell-based, human; conditions: IL-13, Claramine 2 μM, trifluoroacetate salt
Method: as §4, §5, §6

A2780 cells [17] = test: IL-13-triggered migration (wound healing) assay; format: cell-based, human; conditions: A2780, IL-13, Claramine 2 μM; trifluoroacetate salt
Method: as §4, §5, §6

KM12SM cells [18] = test: IL-13-triggered migration (wound healing) assay; format: cell-based, human; conditions: IL-13, Claramine 2 μM, trifluoroacetate salt
Method: as §4, §5, §6

[19] = U251 cells silenced for EGFR, IL13Rα2 or control, FIG. 6B

## CC(C)CCC[C@@H](C)[C@H]1CC[C@H]2[C@@H]3C[C@@H](NCCCNCCCCNCCCN)C4C[C@@H](O)CC[C@]4(C)[C@H]3CC[C@]12C.O=C(O)C(F)(F)F (stereo partly drawn) [Claramine, (3β, 6β)-6-[[3-[[4-[(3-Aminopropyl)amino]butyl]amino]propyl]amino]-cholestan-3-ol trifluoroacetate salt]
KM12SM cells [1]; KM12SM intrasplenic, p<0.001
  mice survival (Kaplan-Meier): significantly increased
KM12SM cells [1]; day 100 post-inoculation, total dose 49 μg/mouse i.p.
  state of treated mice at sacrifice: without symptoms of the disease, presence of metastatic nodes or weight loss
KM12SM cells [1]; i.p., two weeks on alternate days, total dose 49 μg/mouse, trifluoroacetate salt
  protection against liver metastases: complete protection; also recorded: complete inhibition
U251 cells [2]
  IRS-1 phosphorylation: did not affect
KM12SM cells [3]
  IRS-1 phosphorylation: did not affect
U87MG cells [4]
  cell invasion: inhibit
A2780 cells [5]
  cell invasion: inhibit
KM12SM cells [6]
  cell invasion: inhibit
U87MG cells [7]
  phosphorylation of Src Tyr530: preserved
A2780 cells [8]
  phosphorylation of Src Tyr530: preserved
KM12SM cells [9]
  phosphorylation of Src Tyr530: preserved
KM12SM cells [10]
  IL-13-induced cell adhesion to Matrigel: inhibited; also recorded: abolished
GBM cells
  IL-13-increased glucose uptake: did not inhibit
[11]
  IL-13 promoted cell survival: significant reduction
[12]; Claramine at 2 μM
  effect on cell survival: no effect
[12]; Claramine at 5 μM
  decrease in cell survival: around 50%
U251 GBM cells; [19]
  EGFR activation: suppressed
  Src activation: suppressed
U251 GBM cells; U251 cells, FIG. 6A
  activation of EGFR (pEGFR Y1068) by EGF and IL-13: inhibited
  activation of Src (pSrc Y419) by EGF and IL-13: inhibited
U251 cells [13]; Western blot of tumor extracts
  phosphorylation of PTP1B in xenograft tissues: moderate inhibition
U251 cells [13]; during i.p. treatment with Claramine, trifluoroacetate salt
  toxicity / weight of the animals: remained constant; also recorded: No Claramine toxicity was observed
U251 cells [13]; i.p. treatment starting 15 days after implantation, 7 doses, total 2 mg/kg, trifluoroacetate salt
  tumor growth: significantly inhibited; also recorded: stop growing; also recorded: regression
GBM12 PDX; GBM12 PDX intracranial, p<0.001, trifluoroacetate salt
  mice survival (Kaplan-Meier), treated versus control: significantly increased; also recorded: statistically significant difference in survival; also recorded: considerable increase
GBM12 PDX; four doses, total of 4 mg/kg or 8 mg/kg, from day 7
  survival up to: 70-72 days post-inoculation
GBM12 PDX; four doses, total of 4 mg/kg or 8 mg/kg, from day 7, control mice 27 days
  median survival: 36 to 39 days
U87MG cells [14]
  proliferation (MTT): inhibited
KM12SM cells [15]
  proliferation (MTT): inhibited
U87MG cells [16]
  cell migration: inhibit
A2780 cells [17]
  cell migration: inhibit
KM12SM cells [18]
  cell migration: inhibit
